In patent US20250002526A1, “PHARMACEUTICAL COMPOSITION HAVING ANTI-CANCER IMMUNOSTIMULATING EFFECT AND/OR IMMUNE CHECKPOINT INHIBITION POTENTIATING EFFECT” (KYUSHU UNIVERSITY, NATIONAL UNIVERSITY CORPORATION, priority 2021, published 2025):
Like-named read-outs stand apart in the source and are kept apart here.

Legend:
[1] = target: T1, recombinant human SULT2B1b protein (Homo sapiens, UniProt O00204); assay: SULT assay (in vitro SULT2B1b enzymatic activity measurement); format: biochemical; conditions: read-out: in vitro SULT2B1b assay % activity at 200 μM
T1 sequence (O00204 1-365): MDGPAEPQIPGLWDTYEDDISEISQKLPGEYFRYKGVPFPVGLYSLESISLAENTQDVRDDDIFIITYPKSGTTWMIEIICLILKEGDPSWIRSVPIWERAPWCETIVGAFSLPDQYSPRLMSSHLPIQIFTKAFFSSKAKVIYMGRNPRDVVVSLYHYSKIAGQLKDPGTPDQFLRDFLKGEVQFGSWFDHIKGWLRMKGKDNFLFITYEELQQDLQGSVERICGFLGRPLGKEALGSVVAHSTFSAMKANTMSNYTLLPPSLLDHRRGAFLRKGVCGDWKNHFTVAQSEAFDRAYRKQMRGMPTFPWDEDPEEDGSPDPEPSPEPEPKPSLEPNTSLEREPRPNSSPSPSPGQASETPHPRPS
Method: For screening for a SULT2B1b inhibitor, enzymatic activity measurement for SULT2B1b was carried out by a method described in a previous report (NPL 2) with slight modifications.
The reaction solution (50 μl) was composed of 1 to 5 μg of recombinant human SULT2B1b protein, 10 μM [^3H]cholesterol (approximately 4,000 dpm/pmol), 10 mM Tris-HCl (pH 7.5, containing 5 mM MgCl2) containing 0.1 mM 3′-phosphoadenosine 5′-phosphosulfate (PAPS), 0.2 mM 2-hydroxypropyl-β-cyclodextrin, and 5% (v/v) ethanol. Recombinant human SULT2B1b protein was pre-incubated with 1 μl of a test compound (final concentration: 40 or 200 μM) or DMSO (control) at room temperature for 15 minutes, 2 mM PAPS (2.5 μl) was then added to initiate reaction, the resultant was reacted at 37° C. for 15 minutes, and 0.8 ml of ethanol was added to terminate the reaction.
The solution after the reaction was subjected to thin-layer chromatography (TLC) for separation, and then to a liquid scintillation counter to quantify radiolabeled CS.
From the percentage to the amount ([…]) of radiolabeled CS generated through reaction in the absence of the test compound (DMSO) (control), the SULT2B1b activity (% activity) of SULT2B1b protein in the presence of the test compound was evaluated, and the effect of the test compound to inhibit SULT2B1b-mediated CS production (CS production inhibitory effect) was evaluated.
In enzyme assay, SULT assay was performed with use of cholenoic acid as a compound to be tested at different cholesterol and PAPS concentrations (wherein 0.5 to 1 μg of recombinant human SULT2B1b protein was used, the preincubation time and reaction time were each 10 minutes), and the results were fitted to the Michaelis-Menten equation by using Prism 9 (GraphPad Software, Inc.) to perform enzyme kinetic analysis for the inhibition by cholenoic acid.
SULT assay was performed for the compounds as test compounds by the method described in (14) of “II. Experimental procedure” in Experiment Example 1 to evaluate the SULT2B1b inhibitory effects of the compounds.

[2] = tested on: SULT2B1b-mediated CS production in E0771-SULT cells; assay: CS production inhibitory effect in E0771-SULT cells (LC/MS/MS quantification of CS); format: cell-based, mouse; conditions: Mus musculus; for activity at 10 µM / activity at 20 µM: 24 h; for activity at 10 µM: relative to control (100%); for activity at 20 µM: relative to control without compound (100%); for IC50: read-out: IC50 value (CS production)
Method: CS in each human cancer tissue sample was quantified by a method described in NPL 2. To monitor the amounts of CS and/or oxysterol generated in E0771, 3LL, EG.7-OVA, and MC38 cells irrespective of the presence or absence of SULT2B1b expression, cells of each type were seeded in a 6-well plate at 5×10^5 cells/well, and the culture supernatant and cell pellet were collected after 24 hours. Subsequently, deuterium-labeled internal standard (IS) compounds (d7-CS [[…]] and d6-25-hydroxycholesterol) were added to fractions of the culture supernatant and cell pellet, each of which was subjected to extraction with 1 mL of extraction solvent (methanol/chloroform/water=5:2:2 [v/v/v]) to extract CS and oxysterol from the culture supernatant or cell pellet.
Each sample was vigorously mixed with a vortex for 1 minute, and then ultrasonicated for 5 minutes. Thereafter, the sample was centrifuged at 16,000×g and 4° C. for 5 minutes, and the supernatant (700 μl) was collected in a clean tube. Into this, 235 μl of chloroform and 155 μl of water were added and mixed, and the resultant was then subjected to vortexing followed by centrifugation to separate into an aqueous layer and an organic layer. Subsequently, 200 μl of the lowermost layer was dried under a nitrogen flow.
The dried sample was dissolved in 50 μl of methanol, and CS and oxysterol therein were quantified by liquid chromatography-tandem mass spectrometry (LC/MS/MS) with a triple quadrupole mass spectrometer (LCMS-8060; Shimadzu Corporation) equipped with an electrospray ionization (ESI) ion source in a multiple reaction monitoring (MRM) mode.
• Column: Inertsil ODS-4 (2.1×150 mm; particle size: 3 μm; GL Sciences Inc.) • Column temperature: 40° C. • Flow rate: 0.3 ml/min • Mobile phase: (A) water/acetonitrile (1:2, v/v) containing 5 mM ammonium acetate (B) Methanol/Isopropanol (1:19, v/v) Containing 5 mM Ammonium Acetate • Gradient curve: 0 min→22 min: (B) 0%→100%, • 22 min→27 min: (B) 100%, • 27 min→27.1 min: (B) 100%→0%, • 27.1 min→30 min: (B) 0% • Injection volume: 5 μl • Mass spectrometry mode: positive and negative ion modes • Electrospray voltage: 4 kV in positive ion mode, −3.5 kV in negative ion mode • Nebulizer gas flow rate: 3.0 L/min • Drying gas flow rate: 10.0 L/min • Desolvation temperature: 250° C. • Heat block temperature: 400° C. • Detector voltage: 2.16 kV • Used were MRM mode and 2 msec of dwell time per channel.
Absolute CS and oxysterol contents were calculated from calibration curves. MRM calibration curves were prepared with chromatographic peak areas for the analytes relative to peak areas for internal standards through three times of analysis for standard solutions.
The CS production effects of test compounds (compounds 1 to 19, 21, 23, 25, and 27 to 32) were evaluated with the mouse breast cancer cell line E0771 expressing SULT2B1b (E0771-SULT cells).
Specifically, as in the above description in experimental procedure (12), E0771-SULT cells were seeded in a 6-well plate at a proportion of 5×10^5 cells/well, and cultured in the presence or absence (control) of each test compound for 24 hours. After culturing, CS generated in E0771-SULT cells was quantified by LC/MS/MS according to the description in experimental procedure (12). The CS production capacity (% activity) of cells cultured in the presence of each test compound was evaluated from the percentage relative to the CS production level (control) (100%) in E0771-SULT cells cultured in the absence of the test compound, and the CS production inhibitory effect of the test compound was evaluated.

COC(=O)CC[C@@H](C)[C@H]1CC[C@H]2[C@@H]3CC=C4C[C@@H](OC(=O)C(F)(F)F)CC[C@]4(C)[C@H]3CC[C@]12C [Compound 4, methyl (R)-4-((3S,8S,9S,10R,13R,14S,17R)-10,13-dimethyl-3-(2,2,2-trifluoroacetoxy)-2,3,4,7,8,9,10,11,12,13,14,15,16,17-tetradecahydro-1H-cyclopenta[a]phenanthren-17-yl)pentanoate] gave an activity at 200 µM [1] of 13.6%, an activity at 10 µM ([2]; E0771-SULT cells, 24 hours, test compound 10 μM (Table 1), read-out: CS production % activity at 10 μM) of 79.2% and an activity at 20 µM ([2]; E0771-SULT cells, 24 hours, test compound 20 μM, read-out: CS production % activity at 20 μM) of 49.9%. For the same molecule, the activity at 10 µM ([2]; E0771-SULT cells, 24 hours, third concentration column of Table 1, head again printed 10 μM, read-out: CS production % activity at 10 μM) was 104% and the IC50 ([2]; E0771-SULT cells) was 20 µM.

For C[C@H](CCC(=O)N(Cc1ccccc1)Cc1ccccc1)[C@H]1CC[C@H]2[C@@H]3CC=C4C[C@@H](OC(=O)C(F)(F)F)CC[C@]4(C)[C@H]3CC[C@]12C [Compound 7, (3S,8S,9S,10R,13R,14S,17R)-17-((R)-5-(dibenzylamino)-5-oxopentan-2-yl)-10,13-dimethyl-2,3,4,7,8,9,10,11,12,13,14,15,16,17-tetradecahydro-1H-cyclopenta[a]phenanthren-3-yl 2,2,2-trifluoroacetate], the activity at 200 µM ([1]; test compound 200 μM, relative to DMSO control (100%)) was 6.4%, the activity at 10 µM ([2]; read-out: CS production % activity at 10 μM, E0771-SULT cells, 24 hours, test compound 10 μM (Table 1)) was 59% and the activity at 10 µM ([2]; read-out: CS production % activity at 10 μM, E0771-SULT cells, 24 hours, third concentration column of Table 1, head again printed 10 μM) was 74.6%. The activity at 20 µM ([2]; read-out: CS production % activity at 20 μM, E0771-SULT cells, 24 hours, test compound 20 μM) was 57.8% and the IC50 [2] was 17.3 µM.
